Reference: ChEMBL document CHEMBL5136961, “Deglycase-activity oriented screening to identify DJ-1 inhibitors” (RSC Med Chem, 2021)

Target: T1, Parkinson disease protein 7 (Homo sapiens, UniProt Q99497)
T1 sequence (Q99497 whole entry): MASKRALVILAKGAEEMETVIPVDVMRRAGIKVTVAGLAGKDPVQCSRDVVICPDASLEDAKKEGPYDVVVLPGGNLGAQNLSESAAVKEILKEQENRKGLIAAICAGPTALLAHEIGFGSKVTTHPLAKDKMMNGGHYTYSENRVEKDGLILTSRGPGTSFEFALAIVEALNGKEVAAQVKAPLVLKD
Experiment: Inhibition of pET3a-His-tagged DJ1 (unknown origin) expressed in Escherichia coli BL21 assessed as decrease in esterase activity using DiFMUAc as substrate

Row | IC50 [nM] | SMILES
1 | 676 | Cc1ccc(CN2C(=O)C(=O)c3cc(Br)cc(Br)c32)cc1
2 | 1700 | O=C1N(CCc2ccccc2)c2ccc(F)cc2C1(Cl)Cl
3 | 180 | O=C1C=C(CCc2ccccc2)c2ccccc2C1=O
4 | 2930 | COc1ccc2c(c1)C(=O)C(=O)N2CCc1ccccc1
5 | 510 | C#CCOc1cc2ccccc2cc1C(=O)NC1=CC(=O)C2OC2C1O (stereo not drawn)
6 | 62.6 | O=C1C(=O)N(CCc2ccccc2)c2c(Br)cc(Br)cc21
7 | 118 | CCN1C(=O)C(=O)c2cc(F)ccc21
8 | 267 | COc1ccc(CN2C(=O)C(=O)c3cc(Br)cc(Br)c32)cc1
9 | 9790 | O=C(O)c1ccc2c(c1)C(=O)C(=O)N2CCc1ccccc1
10 | 15000 | O=C1/C(=C/Cl)c2cc(F)ccc2N1CCc1ccccc1
11 | 54.6 | COc1cc(F)cc2c1N(CCc1ccccc1)C(=O)C2=O
12 | 701 | O=C1C(=O)N(CCc2ccccc2)c2ccccc21
13 | 118 | O=C1C(=O)N(CCc2ccccc2)c2ccc(F)cc21
14 | 851 | CC(C)(C)CCN1C(=O)C(=O)c2cc(F)ccc21
15 | 700 | O=C1C(F)c2cc(F)ccc2N1CCc1ccccc1 (stereo not drawn)
16 | 356 | O=C1C(=O)N(CC2(c3ccccc3)CC2)c2ccc(F)cc21
17 | 85 | O=C1C(Cl)c2cc(F)ccc2N1CCc1ccccc1 (stereo not drawn)
18 | 2350 | O=C(O)Cc1ccc2c(c1)N(CCc1ccccc1)C(=O)C2=O
